According to patent US9458095B2, “Oligo-benzamide compounds and their use in treating cancers” (The Board of Regents of the University of Texas System, priority 2011, dated 2016):

How the values were obtained:
ARv7 regulated genes = assay: Q-PCR of ARv7 regulated genes; format: cell-based; details: data not shown
Excerpt: Finally, confirmation of the role of T6 in modulating ARv7 driven transcription was obtained by evaluation of the gene expression of ARv7 regulated genes.

[1] = test system: ARE activity in CWR22v1 cells (ARwt and ARv7); assay: ARE-luciferase reporter in CWR22v1 cells; format: cell-based; details: 10 μM casodex or MDV3100, 48 h, without androgen (EtOH)
Experimental: FIG. 4. Effect of T6 on basal level of ARE expression in CWR22v1 cells. CWR22v1 cells were transiently transfected with ARE-luciferase. Cells were maintained for 48 h without (EtOH) and in the presence of 100 nM of peptidomimetic or volume equivalent of vehicle (DMSO) control or 10 μM of casodex or MDV3100.

[2] = target: T1, PELP1 interaction with estrogen receptor (Homo sapiens, UniProt P03372); assay: PELP1-ER interaction, GST pull down assay; format: binding; details: TK11 500 nM, purified ER, GST-PELP1, E2
T1 construct: purchased
T1 sequence (P03372 1-595): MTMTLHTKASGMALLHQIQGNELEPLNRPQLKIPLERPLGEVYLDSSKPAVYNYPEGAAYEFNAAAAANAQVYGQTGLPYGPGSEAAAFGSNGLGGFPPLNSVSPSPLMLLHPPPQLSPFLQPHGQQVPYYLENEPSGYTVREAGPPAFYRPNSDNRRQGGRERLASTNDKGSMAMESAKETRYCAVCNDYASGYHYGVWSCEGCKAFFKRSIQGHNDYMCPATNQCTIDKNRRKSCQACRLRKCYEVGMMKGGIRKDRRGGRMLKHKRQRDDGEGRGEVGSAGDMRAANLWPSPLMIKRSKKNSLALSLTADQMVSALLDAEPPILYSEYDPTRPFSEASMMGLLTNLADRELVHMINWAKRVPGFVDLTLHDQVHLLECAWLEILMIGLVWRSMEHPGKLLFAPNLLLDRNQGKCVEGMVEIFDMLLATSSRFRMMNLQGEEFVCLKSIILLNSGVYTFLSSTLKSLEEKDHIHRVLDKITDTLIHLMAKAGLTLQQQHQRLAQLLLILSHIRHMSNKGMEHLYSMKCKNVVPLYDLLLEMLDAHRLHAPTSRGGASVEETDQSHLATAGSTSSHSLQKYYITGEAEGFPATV
Experimental: FIGS. 12A-C. Testing of oligo-benzamides for growth inhibition of estrogen driven proliferation. (FIG. 12A) Structure of peptidomimetics used in the assays. (FIG. 12B) Effect of tribenzamimetics on E2 driven proliferation using ZR75 model cells. (FIG. 12C) Effect of tribenzamides on PELP1-ER interaction. *, P<0.05.
Purified commercially available estrogen receptor (ER) was incubated with biotin-con or biotin-TK11 peptidomimetic in the presence of estrogen (E2). TK11 interaction with ER was determined using avidin immunoprecipitation (IP) followed by western blotting. For some experiments, MCF-7 cells were stimulated with estrogen (E2), nuclear lysates were prepared and incubated with biotin-con or biotin-TK11 peptidomimetic. TK11 interactions with endogenous ER were analyzed by avidin IP. For some experiments, purified ER, GST-PELP1 was incubated in the presence of E2 and ability of control or TK11 (500 nM) to compete PELP1 interaction with ER was determined GST pull down assay.

[3] = test system: prostate cancer cell line; assay: Growth inhibition of prostate cancer cell line; format: cell-based
LN229 = assay: Growth inhibition of brain cancer cell line LN229 (MTT); format: cell-based, Human; details: 72 h
Experimental: (§1) FIGS. 8A-B. Testing of oligo-benzamides for growth inhibitor of two brain cancer cell lines. (FIG. 8A) Results for cell line U87. (FIG. 8B) Results for cell line LN229. […] Human Breast cancer cells MCF7, ZR75, glioma cells U87, T98G, LN229, and the ovarian cancer cell line SKOV3 were obtained from the American Type Culture Collection (ATCC) and were maintained using ATCC recommended media. Cell proliferation rates were measured by using MTT Cell Viability Assay in 96-well micro plates. Model cells were seeded in 96-well plates (2×10^3 cells/well) in DMEM or RPMI medium containing 10% serum. After an overnight incubation, cells were treated with varying concentrations of oligo-benzamides for 72 h and growth inhibition was determined by using traditional MTT assay (Sigma) following manufacturer's instructions.

[4] = test system: triple negative breast cancer cell line; assay: Growth inhibition of breast cell lines (MTT); format: cell-based; details: 72 h
Experimental: FIG. 6. Testing of oligo-benzamides for growth inhibition of breast cell lines.
(§2) Cell proliferation rates were measured by using MTT Cell Viability Assay in 96-well micro plates. Model cells were seeded in 96-well plates (2×10^3 cells/well) in DMEM or RPMI medium containing 10% serum. After an overnight incubation, cells were treated with varying concentrations of oligo-benzamides for 72 h and growth inhibition was determined by using traditional MTT assay (Sigma) following manufacturer's instructions.

IOMM-LEE = assay: Growth inhibition of meningioma cell line IOMM-LEE; format: cell-based
Experimental: (§3) FIGS. 10A-B. Testing of oligo-benzamide (TK 11) for growth inhibitor of two meningioma brain cancer cell lines. (FIG. 10A) Results for cell line CH157. (FIG. 10B) Results for cell line IOMM-LEE.
as §2

ovarian cancer cell line = assay: Growth inhibition of ovarian cell lines (MTT); format: cell-based; details: 72 h
Experimental: FIG. 7. Testing of oligo-benzamides for growth inhibition of ovarian cell lines.
Human Breast cancer cells MCF7, ZR75, glioma cells U87, T98G, LN229, and the ovarian cancer cell line SKOV3 were obtained from the American Type Culture Collection (ATCC) and were maintained using ATCC recommended media.
as §2

[5] = test system: IOSE immortalized normal ovarian cells; assay: Growth of normal ovarian cells; format: cell-based
Experimental: FIG. 11. Testing of oligo-benzamides on growth of normal ovarian cells. IOSE are immortalized normal ovarian cells.
as §2

U87 = assay: Growth inhibition of brain cancer cell line U87 (MTT); format: cell-based, Human; details: 72 h
Experimental: as §1

CH157 = assay: Growth inhibition of meningioma cell line CH157; format: cell-based
Experimental: as §3, §2

[6] = test system: Tamoxifen therapy resistant MCF7-HER2 and MCF7-TAM cells; assay: Therapy resistance assay (MTT), hormonal therapy resistant cells; format: cell-based, Human; details: tamoxifen (10^-7M) containing media, P<0.05
Experimental: FIG. 13. Testing of oligo-benzamides for growth inhibition of hormonal therapy resistant cells.
Tamoxifen (Tam) therapy resistant MCF7-HER2 and MCF7-TAM cells were cultured in tamoxifen (10^-7M) containing media in the presence or absence of TK11 and proliferation was measured by MTT assay (Sigma) following manufacturer's instructions.

| blocking PELP1 oncogene interactions with estrogen receptor [2] | SMILES | expression of a panel of ARv7 regulated genes (Q-PCR) (ARv7 regulated genes) | basal ARE activity in CWR22v1 cells [1] | potency in inhibiting prostate cancer cell line [3] | growth inhibition, brain cancer cell line LN229 (LN229) | growth inhibition, triple negative breast cancer cell line [4] | growth inhibition, meningioma cell line IOMM-LEE (specificity versus prostate cancer cell line) (IOMM-LEE) | growth inhibition, ovarian cancer cell line (ovarian cancer cell line) | potency in inhibiting growth of normal ovarian cells (IOSE) [5] | growth inhibition, brain cancer cell line U87 (U87) | growth inhibition, meningioma cell line CH157 (specificity versus prostate cancer cell line) (CH157) | growth of hormonal therapy resistant cells [6] |
| --- | --- | --- | --- | --- | --- | --- | --- | --- | --- | --- | --- | --- |
|  | CNC(=O)c1ccc(N2C(=S)N(c3ccc(C#N)c(C(F)(F)F)c3)C(=O)C2(C)C)cc1F [MDV3100, reference compound] | could not affect | neither casodex nor MDV3100 could significantly affect |  |  |  |  |  |  |  |  |  |
| very efficient in blocking | CC(C)COc1cc(C(N)=O)ccc1NC(=O)c1ccc(NC(=O)c2ccc([N+](=O)[O-])c(OCCO)c2)c(OCC(C)C)c1 [TK11] |  |  | weak potency | high potency | high potencies | higher specificity | high potency | weak potency | high potency | higher specificity | significantly inhibited |
|  | CC(O)(CS(=O)(=O)c1ccc(F)cc1)C(=O)Nc1ccc(C#N)c(C(F)(F)F)c1 (centres unmarked) [casodex, reference compound] | could not affect | neither casodex nor MDV3100 could significantly affect |  |  |  |  |  |  |  |  |  |
